Where two headings read alike, the source gives them in different places.
Legend:
[1] = mouse, in vivo, po, 50 mg/kg
Procedure: (§1) Plasma and lung samples were collected. Lung samples were split into two parts, one lobe was further processed for pharmacokinetic analysis, the other lobe was processed for analysis of phosphorylated EphB4 receptor. For controls, one group of animals was treated for 2 h with NMP (10%) PEG (90%).

[2] = biological target: T1, murine EphB4 kinase (Mus musculus, UniProt P54761); test: EphB4 phosphorylation in lung tissue of mice (anti-pY Western blot of immunoprecipitates); format: in vivo; settings: naïve mice, 50 mg/kg p.o.
T1 construct: from tissue; host or cells: mouse lung tissue
T1 sequence (P54761 16-987): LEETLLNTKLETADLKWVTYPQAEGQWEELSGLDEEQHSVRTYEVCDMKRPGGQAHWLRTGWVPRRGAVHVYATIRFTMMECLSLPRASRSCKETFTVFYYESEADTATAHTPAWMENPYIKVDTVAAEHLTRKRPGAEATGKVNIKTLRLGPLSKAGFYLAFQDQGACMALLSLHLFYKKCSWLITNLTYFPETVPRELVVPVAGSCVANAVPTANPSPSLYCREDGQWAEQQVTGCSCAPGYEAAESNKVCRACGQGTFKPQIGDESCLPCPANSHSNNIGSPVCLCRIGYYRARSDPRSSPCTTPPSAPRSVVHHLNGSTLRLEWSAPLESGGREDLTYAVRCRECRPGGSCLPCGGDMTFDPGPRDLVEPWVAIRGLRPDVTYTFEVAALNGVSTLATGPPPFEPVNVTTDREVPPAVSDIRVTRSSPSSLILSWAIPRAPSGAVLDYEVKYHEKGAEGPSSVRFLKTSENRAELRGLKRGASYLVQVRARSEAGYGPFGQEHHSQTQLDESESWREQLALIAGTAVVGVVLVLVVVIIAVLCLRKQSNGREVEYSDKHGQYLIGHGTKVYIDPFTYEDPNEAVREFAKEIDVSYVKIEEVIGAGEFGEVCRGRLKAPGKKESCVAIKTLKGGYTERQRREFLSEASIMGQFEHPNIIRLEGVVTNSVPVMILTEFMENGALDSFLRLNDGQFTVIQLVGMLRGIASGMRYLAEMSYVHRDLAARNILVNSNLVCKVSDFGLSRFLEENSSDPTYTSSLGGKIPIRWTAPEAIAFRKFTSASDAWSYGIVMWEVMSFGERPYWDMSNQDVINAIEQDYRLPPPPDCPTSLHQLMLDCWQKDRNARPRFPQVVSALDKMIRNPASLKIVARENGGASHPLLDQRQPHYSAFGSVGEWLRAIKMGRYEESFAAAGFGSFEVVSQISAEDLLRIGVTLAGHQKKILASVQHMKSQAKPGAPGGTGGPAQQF
Procedure: as §1

[3] = biological target: T2, EphB4 (Homo sapiens, UniProt P54760); test: Cell capture ELISA of EphB4 phosphorylation in stably transfected A375 melanoma cells stimulated with ephrinB2; format: cell-based; settings: two independent experiments
T2 sequence (P54760 16-987): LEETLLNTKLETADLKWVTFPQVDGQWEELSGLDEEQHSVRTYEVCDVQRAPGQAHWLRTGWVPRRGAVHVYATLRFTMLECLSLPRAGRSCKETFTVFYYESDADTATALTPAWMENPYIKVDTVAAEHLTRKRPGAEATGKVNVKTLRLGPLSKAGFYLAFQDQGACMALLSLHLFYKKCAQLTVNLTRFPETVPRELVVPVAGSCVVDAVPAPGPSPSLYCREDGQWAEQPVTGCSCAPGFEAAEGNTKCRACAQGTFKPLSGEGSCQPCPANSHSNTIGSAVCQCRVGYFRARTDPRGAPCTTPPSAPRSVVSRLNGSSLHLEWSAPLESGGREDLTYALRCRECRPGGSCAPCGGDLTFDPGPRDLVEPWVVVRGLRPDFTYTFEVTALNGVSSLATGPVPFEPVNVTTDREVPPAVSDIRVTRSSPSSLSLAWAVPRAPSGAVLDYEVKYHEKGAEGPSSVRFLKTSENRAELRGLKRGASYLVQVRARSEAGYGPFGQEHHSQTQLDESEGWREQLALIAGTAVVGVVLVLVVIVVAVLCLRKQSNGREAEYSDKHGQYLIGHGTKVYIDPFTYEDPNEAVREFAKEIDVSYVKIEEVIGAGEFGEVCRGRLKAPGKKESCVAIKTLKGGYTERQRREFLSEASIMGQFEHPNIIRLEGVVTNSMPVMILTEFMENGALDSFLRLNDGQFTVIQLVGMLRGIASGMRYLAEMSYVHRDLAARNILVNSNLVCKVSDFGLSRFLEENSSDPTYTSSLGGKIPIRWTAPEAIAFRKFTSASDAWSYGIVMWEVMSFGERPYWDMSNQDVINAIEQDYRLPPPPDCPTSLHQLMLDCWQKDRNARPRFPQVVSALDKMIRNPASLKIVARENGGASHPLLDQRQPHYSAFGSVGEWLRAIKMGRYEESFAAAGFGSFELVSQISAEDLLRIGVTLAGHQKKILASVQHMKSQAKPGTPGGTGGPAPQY
Procedure: A cell capture ELISA has been set up to quantify the amount of phosphorylated EphB4 receptor protein in cell extracts. To this purpose, A375 melanoma cells have been stably transfected with full length EphB4 and EphB4 phosphorylation was induced by the addition of the ligand ephrinB2 in the presence of vanadate. Lysates from unstimulated cells were used as negative controls. […] Measurements were done in duplicates and two independent experiments were performed. Cell lysates were prepared and the receptor protein was captured on ELISA plates. Phosphorylated receptor was detected and quantified using alkaline phosphatase coupled anti-phosphotyrosine antibodies.

Compound level in lung tissue ([1]; 2 h): 40 to 50 nmol/g | Compound level in lung tissue ([1]; 24 h): 0.7 nmol/g | Phosphorylation of EphB4 in lung tissue ([2]; 2 h after administration): nearly abolished | Phosphorylation of EphB4 in lung tissue ([2]; 24 h after administration): recovers to control levels | Effect on EphB4 protein levels in lung tissue ([2]; both time points (2 h and 24 h)): No effect
SMILES: Cc1cn(-c2cc(NC(=O)c3ccc(C)c(Nc4nccc(-c5cccnc5)n4)c3)cc(C(F)(F)F)c2)cn1 [4-Methyl-3-[[4-(3-pyridinyl)-2-pyrimidinyl]amino]-N-[5-(4-methyl-1H-imidazol-1-yl)-3-(trifluoromethyl)phenyl] benzamide]
Inhibition of EphB4 phosphorylation [3]: dose dependently inhibited EphB4 phosphorylation

Source: patent publication US8093259B2, “4-methyl-3-[[4-(3-pyridinyl)-2-pyrimidinyl]amino]-N-[5-(4-methyl-1H-imidazol-1-yl)-3-(trifluoromethyl)phenyl]-benzamide for treatment of melanoma” (Novartis AG, priority 2006, dated 2012)
